Measured values taken from patent EP0690048A1, “Ortho-amino substituted benzoylguanidines, process for their preparation, their use as medicine or diagnostic and medicines containing them” (HOECHST AKTIENGESELLSCHAFT, priority 1994, dated 1996).
Counter-ions that a name gives are not always drawn.

Each compound was assayed against T1, Na⁺/H⁺-Exchangers von Kaninchenerythrocyten (Oryctolagus cuniculus, UniProt P23791) (assay: Inhibition of the Na+/H+ exchanger of rabbit erythrocytes (amiloride-sensitive sodium influx, flame photometry)). Settings: Inhibition des Na⁺/H⁺-Exchangers, hyperosmolares Salz-Sucrose-Medium, pH 7,4, 37°C, read-out: IC₅₀.
T1 construct: den Na⁺-Influx in die Erythrocyten via Na⁺/H⁺-Austausch flammenphotometrisch bestimmen zu können; endogenous in cells; host or cells: erythrocytes in blood from the ear arteries of cholesterol-fed White New Zealand rabbits
T1 sequence (P23791 whole entry): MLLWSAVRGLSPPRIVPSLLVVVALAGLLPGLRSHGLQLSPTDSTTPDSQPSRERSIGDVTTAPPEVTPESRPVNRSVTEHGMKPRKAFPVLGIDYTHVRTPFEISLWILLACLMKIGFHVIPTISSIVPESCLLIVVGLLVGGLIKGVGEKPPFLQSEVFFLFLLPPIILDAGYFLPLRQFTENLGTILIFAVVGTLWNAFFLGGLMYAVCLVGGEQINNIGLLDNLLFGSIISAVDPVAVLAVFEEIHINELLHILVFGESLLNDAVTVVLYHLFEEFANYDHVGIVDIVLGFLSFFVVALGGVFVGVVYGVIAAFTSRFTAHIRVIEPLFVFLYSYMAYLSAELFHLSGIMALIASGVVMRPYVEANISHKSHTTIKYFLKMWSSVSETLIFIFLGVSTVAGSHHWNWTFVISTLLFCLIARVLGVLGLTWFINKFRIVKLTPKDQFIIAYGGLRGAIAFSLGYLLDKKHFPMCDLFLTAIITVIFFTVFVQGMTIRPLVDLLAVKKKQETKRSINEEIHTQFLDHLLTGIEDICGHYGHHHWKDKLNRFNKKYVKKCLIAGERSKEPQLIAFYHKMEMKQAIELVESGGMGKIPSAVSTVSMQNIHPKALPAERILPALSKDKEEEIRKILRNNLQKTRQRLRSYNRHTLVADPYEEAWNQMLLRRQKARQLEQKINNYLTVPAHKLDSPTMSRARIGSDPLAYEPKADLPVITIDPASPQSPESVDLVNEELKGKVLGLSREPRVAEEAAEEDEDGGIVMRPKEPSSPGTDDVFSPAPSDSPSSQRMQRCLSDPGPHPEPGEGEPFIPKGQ
Type: cell-based, Kaninchen
From the text: Inhibition des Na⁺/H⁺-Exchangers von Kaninchenerythrocyten
Weiße Neuseeland-Kaninchen (Ivanovas) erhielten eine Standard-Diät mit 2% Cholesterin für sechs Wochen, um den Na⁺/H⁺-Austausch zu aktivieren und so den Na⁺-Influx in die Erythrocyten via Na⁺/H⁺-Austausch flammenphotometrisch bestimmen zu können. Das Blut wurde den Ohrarterien entnommen und durch 25 IE Kalium-Heparin ungerinnbar gemacht. Ein Teil jeder Probe wurde zur Doppelbestimmung des Hämatokrits durch Zentrifugieren benutzt. Aliquots von jeweils 100 µl dienten zur Messung des Na⁺-Ausgangsgehalts der Erythrocyten.
Um den Amilorid-sensitiven Natrium-Influx zu bestimmen, wurden 100 µl jeder Blutprobe in jeweils 5 ml eines hyperosmolaren Salz-Sucrose-Mediums (mmol/l: 140 NaCl, 3 KCl, 150 Sucrose, 0,1 Ouabain, 20 Tris-hydroxymethylaminomethan) bei pH 7,4 und 37°C inkubiert. Die Erythrozyten wurden danach dreimal mit eiskalter MgCl₂-Ouabain-Lösung (mmol/l: 112 MgCl₂, 0,1 Ouabain) gewaschen und in 2,0 ml destilliertem Wasser hämolysiert. Der intrazelluläre Natriumgehalt wurde flammenphotometrisch bestimmt.
Der Na⁺-Nettoinflux wurde aus der Differenz zwischen Natrium-Ausgangswerten und dem Natriumgehalt der Erythrocyten nach Inkubation errechnet. Der Amilorid-hemmbare Natrium-Influx ergab sich aus der Differenz des Natriumgehalts der Erythrocyten nach Inkubation mit und ohne Amilorid 3 x 10⁻⁴ mol/l. Auf diese Weise wurde auch bei den erfindungsgemäßen Verbindungen verfahren.

SMILES | IC50 [µM]
NC(N)=NC(=O)c1cc(S(N)(=O)=O)c(Cl)cc1N [Beispiel 1, 2-Amino-4-chloro-5-sulfamoyl-benzoylguanidin-dihydrochlorid] | 2 to 3
NC(N)=NC(=O)c1cc(Cl)ccc1N [Beispiel 9, 2-Amino-5-chloro-benzoylguanidin-dihydrochlorid] | 1 to 2
NC(N)=NC(=O)c1cc(Br)c(Br)cc1N [Beispiel 11, 2-Amino-4,5-dibromo-benzoylguanidin] | 0.1
CN(C)c1ccc(Cl)cc1C(=O)N=C(N)N [Beispiel 12, 2-Dimethylamino-5-chloro-benzoylguanidin-dihydrochlorid] | 1 to 2
